These results are taken from patent US9789165B2 (Sanofi, priority 2013, dated 2017).

Values after ≈ are worked out from the molar mass of the structure shown. Like-named read-outs stand apart in the source and are kept apart here. Square brackets hold non-standard residues; d marks the D form. Peptide text beside a SMILES is read from it. Nle = CCCC[C@H](N)C(=O)O; Aib = CC(C)(N)C(=O)O A value given as a limit tells only on which side of the number the result lay.

The target in series [1] is T1, human glucagon receptor (hGLUC R) (Homo sapiens, UniProt P47871).
T1 construct: expressed in transfected cells
T1 sequence (P47871 26-477): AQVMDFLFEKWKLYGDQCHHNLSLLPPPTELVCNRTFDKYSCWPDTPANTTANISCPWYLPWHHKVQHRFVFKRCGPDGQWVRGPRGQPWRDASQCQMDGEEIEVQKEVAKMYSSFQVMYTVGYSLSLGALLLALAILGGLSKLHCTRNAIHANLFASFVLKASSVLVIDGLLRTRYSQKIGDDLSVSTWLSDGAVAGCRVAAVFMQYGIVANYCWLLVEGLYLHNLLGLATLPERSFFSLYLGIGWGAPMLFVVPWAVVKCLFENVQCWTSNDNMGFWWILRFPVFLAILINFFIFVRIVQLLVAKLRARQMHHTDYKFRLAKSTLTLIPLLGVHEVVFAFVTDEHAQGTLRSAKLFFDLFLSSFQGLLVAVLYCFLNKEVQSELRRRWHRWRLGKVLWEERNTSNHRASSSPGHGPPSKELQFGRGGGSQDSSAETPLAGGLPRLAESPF
Briefly: cAMP response of HEK-293 cells stably expressing human glucagon receptor (HTRF). The class given is cell-based. The following applies: Table 6; cAMP formation. The protocol:
cAMP content of cells was determined using a kit from Cisbio Corp. (cat. no. 62AM4PEC) based on HTRF (Homogenous Time Resolved Fluorescence). For preparation, cells were split into T175 culture flasks and grown overnight to near confluency in medium (DMEM/10% FBS). Medium was then removed and cells washed with PBS lacking calcium and magnesium, followed by proteinase treatment with accutase (Sigma-Aldrich cat. no. A6964). Detached cells were washed and resuspended in assay buffer (1×HBSS; 20 mM HEPES, 0.1% BSA, 2 mM IBMX) and cellular density determined. They were then diluted to 400000 cells/ml and 25 μl-aliquots dispensed into the wells of 96-well plates. For measurement, 25 μl of test compound in assay buffer was added to the wells, followed by incubation for 30 minutes at room temperature.
(Time-resolved FRET reads energy transfer from a long-lived donor to a nearby acceptor.)

Series [2] can be described thus: Solubility testing in buffer systems, HPLC-UV of supernatant. The class given is physicochemical. The following applies: buffer system. The protocol:
Prior to the testing of solubility and stability of a peptide batch, its content was determined. Therefore, two parameters were investigated, its purity (HPLC-UV) and the amount of salt load of the batch (ion chromatography).
Therefore, solutions from solid samples were prepared in different buffer systems with a concentration of 1.0 mg/mL compound based on the previously determined content. HPLC-UV was performed after 2 h of gentle agitation from the supernatant, which was obtained by 20 min of centrifugation at 4000 rpm.
This analysis also served as starting point (t0) for the stability testing.
(§1) As HPLC/UPLC method, method D or E has been used.

Series [3] has as its system female diabetic dbdb-mice. Nature of the series: Glucose lowering in non-fasted female diabetic dbdb-mice. The class given is in vivo. The following applies: 100 μg/kg s.c., baseline on average 29 mmol/l. The protocol: Female diabetic dbdb-mice (BKS.Cg−+Leprdb/+Leprdb/OlaHsd) 10 weeks of age at study start were used. Mice were habituated to feeding and housing conditions for at least 2 weeks. 7 days prior to study start, HbA1c were determined to allocate mice to groups, aiming to spread low, medium and high HbA1c-values and in consequence the group-means (n=8), as equally as possible. On the day of study, food was removed, directly before sampling for baseline glucose assessment (t=0 min). Immediately afterwards, compounds or vehicle (phosphor buffered saline, PBS) were administered subcutaneously, 100 μg/kg, 10 ml/kg. Afterwards, blood samples were drawn by tail tip incision at 15, 30, 60, 90, 120, 150, 180, 240, 360, 480 min and 24 h. Food was re-offered after the 480 min-sampling.
Data were analysed by 2-W-ANOVA on repeated measurements, followed by Dunnett's test as post-hoc assessment, level of significance p<0.05.
Female dbdb-mice, received 100 μg/kg of SEQ ID NO: 8, SEQ ID NO: 9 or phosphate buffered saline (vehicle control) subcutaneously, at time 0 min.

Series [4] is classed as physicochemical. As to conditions: buffer, 168 h. The protocol:
After that time course, the sample was centrifuged for 20 min at 4000 rpm and the supernatant was analysed with HPLC-UV.
For determination of the amount of the remaining peptide, the peak areas of the target compound at t0 and t7 were compared, resulting in “% remaining peptide”, following the equation % remaining peptide=[(peak area peptide t7)×100]/peak area peptide t0.
The chemical stability is expressed as “% remaining peptide”.
as §1

A short description of series [5]: Pharmacokinetic testing in mice, plasma LC/MS. The class given is in vivo. The following applies: mouse, sc, 1 mg/kg s.c. The protocol:
Mice were dosed 1 mg/kg subcutaneously (s.c.). The mice were sacrified and blood samples were collected after 0.25, 0.5, 1, 2, 4, 8, 16 and 24 hours post application. Plasma samples were analyzed after protein precipitation via liquid chromatography mass spectrometry (LC/MS). PK parameters and half-life were calculated using WinonLin Version 5.2.1 (non-compartment model).
Pharmacokinetic profiles were determined as described in Methods.

Where [6] appears, read: pH 4.5, target concentration 1.0 mg/mL, read-out: Solubility (pH 4.5).
Where [7] appears, read: pH 7.4, target concentration 1.0 mg/mL, read-out: Solubility (pH 7.4).

As a reminder, the EC50 is the concentration needed to bring the measured effect to its halfway point. The low end stands for an effect from little substance, the high end for a need for much substance. Usually solubility stands for how much of the substance goes into solution per volume. In general, Cmax refers to the maximum level reached in the sampled fluid or tissue. The half-life is the time in which the quantity being followed falls by half. Higher therefore signals slow decline. In turn, `CC[C@H](C)[C@H](NC(=O)[C@H](CO)NC(=O)[C@H](CC(C)C)NC(=O)[C@H](CC(=O)O)NC(=O)[C@H](CO)NC(=O)[C@@H](NC(=O)[C@H](Cc1ccccc1)NC(=O)[C@@H](NC(=O)CNC(=O)[C@H](CCC(=O)O)NC(=O)C(C)(C)NC(=O)[C@@H](N)Cc1ccc(O)cc1)[C@@H](C)O)[C@@H](C)O)C(=O)N[C@@H](CCC(N)=O)C(=O)N[C@@H](CCSC)C(=O)N[C@@H](CCC(=O)O)C(=O)N[C@@H](CCCCN)C(=O)N[C@@H](CCCNC(=N)N)C(=O)N[C@@H](C)C(=O)N[C@@H](C)C(=O)NC(C)(C)C(=O)N[C@@H](CCC(=O)O)C(=O)N[C@@H](Cc1ccccc1)C(=O)N[C@H](C(=O)N[C@@H](CCC(=O)O)C(=O)N[C@@H](Cc1c[nH]c2ccccc12)C(=O)N[C@@H](CC(C)C)C(=O)N[C@@H](CCCCN)C(=O)N[C@@H](C)C(=O)NCC(=O)NCC(=O)N1CCC[C@H]1C(=O)N[C@@H](CO)C(=O)N[C@@H](CO)C(=O)NCC(=O)N[C@@H](C)C(=O)N1CCC[C@H]1C(=O)N1CCC[C@H]1C(=O)N1CCC[C@H]1C(=O)N[C@@H](CO)C(N)=O)[C@@H](C)CC` [SEQ ID NO: 8, Y-Aib-E-G-T-F-T-S-D-L-S-I-Q-M-E-K-R-A-A-Aib-E-F-I-E-W-L-K-A-G-G-P-S-S-G-A-P-P-P-S-NH2] (H-Y[Aib]EGTFTSDLSIQMEKRAA[Aib]EFIEWLKAGGPSSGAPPPS-NH2) had an EC50 in series [1] of more than 1 µM. The solubility at 2 h in series [2] (setting [6]) was more than 1 mg/mL. Besides, the solubility at 2 h in series [2] (setting [7]) was more than 1 mg/mL. Further, the “maximal effect, glucose reduction” value in series [3] was approximately 12 mmol/L. Also, in series [4], the “Stability (pH 4.5), % remaining peptide” value is 99% and the “Stability (pH 7.4), % remaining peptide” value is on record as 92%. In series [5], this compound had a Cmax of 0.734 µg/mL and a half-life of 18 min.
On to `CC[C@H](C)[C@H](NC(=O)[C@H](CO)NC(=O)[C@H](CC(C)C)NC(=O)[C@H](CC(=O)O)NC(=O)[C@H](CO)NC(=O)[C@@H](NC(=O)[C@H](Cc1ccccc1)NC(=O)[C@@H](NC(=O)CNC(=O)[C@H](CCC(=O)O)NC(=O)C(C)(C)NC(=O)[C@@H](N)Cc1ccc(O)cc1)[C@@H](C)O)[C@@H](C)O)C(=O)N[C@@H](CCC(N)=O)C(=O)N[C@@H](CC(C)C)C(=O)N[C@@H](CCC(=O)O)C(=O)N[C@@H](CCCCN)C(=O)N[C@@H](CCCNC(=N)N)C(=O)N[C@@H](C)C(=O)N[C@@H](C)C(=O)NC(C)(C)C(=O)N[C@@H](CCC(=O)O)C(=O)N[C@@H](Cc1ccccc1)C(=O)N[C@H](C(=O)N[C@@H](CCC(=O)O)C(=O)N[C@@H](Cc1c[nH]c2ccccc12)C(=O)N[C@@H](CC(C)C)C(=O)N[C@@H](CCCCN)C(=O)N[C@@H](C)C(=O)NCC(=O)NCC(=O)N1CCC[C@H]1C(=O)N[C@@H](CO)C(=O)N[C@@H](CO)C(=O)NCC(=O)N[C@@H](C)C(=O)N1CCC[C@H]1C(=O)N1CCC[C@H]1C(=O)N1CCC[C@H]1C(=O)N[C@@H](CO)C(N)=O)[C@@H](C)CC` [SEQ ID NO: 9, Y-Aib-E-G-T-F-T-S-D-L-S-I-Q-L-E-K-R-A-A-Aib-EFIEWLKAGGPSSGAPPPSN H2] (H-Y[Aib]EGTFTSDLSIQLEKRAA[Aib]EFIEWLKAGGPSSGAPPPS-NH2), for which the solubility at 2 h in series [2] (setting [6]) is 0.875 mg/mL (≈ 213 µM). In series [2] (setting [7]), the solubility at 2 h was found to be 0.892 mg/mL (≈ 217 µM). Moreover, in series [3], the “maximal effect, glucose reduction” value is approximately 16 mmol/L. Also, in series [4], the “Stability (pH 4.5), % remaining peptide” value was determined as 100% and the “Stability (pH 7.4), % remaining peptide” value is recorded as 100%.
With `CCCC[C@H](NC(=O)[C@H](CCC(N)=O)NC(=O)[C@@H](NC(=O)[C@H](CO)NC(=O)[C@H](CC(C)C)NC(=O)[C@H](CC(=O)O)NC(=O)[C@H](CO)NC(=O)[C@@H](NC(=O)[C@H](Cc1ccccc1)NC(=O)[C@@H](NC(=O)CNC(=O)[C@H](CCC(=O)O)NC(=O)C(C)(C)NC(=O)[C@@H](N)Cc1ccc(O)cc1)[C@@H](C)O)[C@@H](C)O)[C@@H](C)CC)C(=O)N[C@@H](CCC(=O)O)C(=O)N[C@@H](CCCCN)C(=O)N[C@@H](CCCNC(=N)N)C(=O)N[C@@H](C)C(=O)N[C@@H](C)C(=O)NC(C)(C)C(=O)N[C@@H](CCC(=O)O)C(=O)N[C@@H](Cc1ccccc1)C(=O)N[C@H](C(=O)N[C@@H](CCC(=O)O)C(=O)N[C@@H](Cc1c[nH]c2ccccc12)C(=O)N[C@@H](CC(C)C)C(=O)N[C@@H](CCCCN)C(=O)N[C@@H](C)C(=O)NCC(=O)NCC(=O)N1CCC[C@H]1C(=O)N[C@@H](CO)C(=O)N[C@@H](CO)C(=O)NCC(=O)N[C@@H](C)C(=O)N1CCC[C@H]1C(=O)N1CCC[C@H]1C(=O)N1CCC[C@H]1C(=O)N[C@@H](CO)C(N)=O)[C@@H](C)CC` [SEQ ID NO: 10, Y-Aib-E-G-T-F-T-S-D-L-S-I-Q-Nle-E-K-R-A-A-Aib-E-F-I-E-W-L-K-A-G-G-P-S-S-G-A-P-P-P-S-NH2] (H-Y[Aib]EGTFTSDLSIQ[Nle]EKRAA[Aib]EFIEWLKAGGPSSGAPPPS-NH2), the solubility at 2 h in series [2] (setting [6]) is 0.96 mg/mL (≈ 234 µM); in series [2] (setting [7]) it was more than 1 mg/mL. Moreover, in series [4], the “Stability (pH 4.5), % remaining peptide” value is reported as 100%. Also, the “Stability (pH 7.4), % remaining peptide” value in series [4] was 100%.
